# What was measured:
# Assay type in all cases: in vivo, Sprague-Dawley rats
# [1] = system: electrocutaneous stimulation-induced facial pain rodent model; assay: ES-induced facial pain model, cold thermal allodynia (acetone test), acute treatment; conditions: 30 mg/kg po, 2 and 4 hrs post dose, p<0.001 and p<0.0001 vs vehicle
# From the text: (§1) The electrocutaneous stimulation-induced facial pain rodent model is a reproducible orofacial pain model in which depilated cheek area of rats are repeatedly subjected to electrical stimulation. Repeated electrical stimulation at low intensities produces craniofacial pain that mimics the behavioral characteristics of TN such as development of mechanical and thermal allodynia at cheeks despite no visible edema, swelling or excessive injury and tissue damage.
# (§2) Male wild type, Sprague-Dawley rats (Charles River Laboratories) born in-house at AfaSci Research Laboratory between May 24, 2020 to May 28, 2020. At approximately 3 months of age (approximately 350 g-450 g body weight) the rats were deemed suitable for the electrocutaneous stimulation-induced facial pain model. Prior to the experiment, the rats were maintained in group cages (3 rats per cage) in a controlled environment (temperature: 21.5±4.5° C./relative humidity: 35-55%) under a standard 12 h light/12 h dark lighting cycle (lights on at 06:00).
# The required quantity of the compounds are weighed and dissolved in 100% DMSO in a volume amounting to 5% of the total volume while placed on a stirrer. The weight of the compounds refers to the free base weights. […]
# (§3) Second baseline measurement was carried out similarly to day 1. […] For each animal, the average of the two baseline nociceptive measurements were calculated within each pain modality (mechanical, heat- and cold pain), and used as baseline (“Baseline” point on figures).
# Similarly, to day 1- and 2, all rats were subjected to acclimatization to test equipment and decapicone followed by measurements of ES-induced facial mechanical- heat- and cold allodynia (“0” time point on figures). […] Compound 1, vehicle and Carbamazepine was administered perorally in doses of 1, 3, and 10 mg/kg (Compound 1) or 30 mg/kg (carbamazepine) and drug effects on pain thresholds were evaluated 2- and 4 hours after drug administration by assessment of mechanical- (von Frey) and thermal hypersensitivity (heat- and cold stimulation respectively). […]
# [2] = system: electrocutaneous stimulation-induced facial pain rodent model; assay: ES-induced facial pain model, hot thermal hyperalgesia (lamp test, selective C fiber testing), acute treatment; conditions: 30 mg/kg po, post 4 hours of dose, p<0.0001
# From the text: as §1, §2
# (§4) The required quantity of the compounds are weighed and dissolved in 100% DMSO in a volume amounting to 5% of the total volume while placed on a stirrer. The weight of the compounds refers to the free base weights. Once the solution becomes clear/transparent, the remaining volume of the vehicle is added (30% HPBCD prepared in MQ water) to final concentrations of 0.1, 0.3, and 1 mg/ml for Compound 1 and 3 mg/ml of Carbamazepine. The solutions are kept on a stirrer before- and during administration of the compounds to the animals.
# (§5) The experimenter assessing the behavioral responses to drug administration is blinded to the drug treatment to the animals. Each treatment group is coded according the scheme below: • A. Vehicle (5% DMSO+30% HPBCD): 10 ml/kg • B. Compound 1: 1 mg/kg • C. Compound 1: 3 mg/kg • D. Compound 1: 10 mg/kg • F. Carbamazepine: 30 mg/kg
# Second baseline measurement was carried out similarly to day 1. Immediately following the second baseline recording, each rat received 1 hr of electrocutaneous stimulation at cheek (0.4 mA intensity, 10 ms duration, 1 s inter-pulse interval). For each animal, the average of the two baseline nociceptive measurements were calculated within each pain modality (mechanical, heat- and cold pain), and used as baseline (“Baseline” point on figures).
# Similarly, to day 1- and 2, all rats were subjected to acclimatization to test equipment and decapicone followed by measurements of ES-induced facial mechanical- heat- and cold allodynia (“0” time point on figures). Based on the individual rat's mechanical- and thermal hypersensitivity, 40 rats were selected for drug testing. Compound 1, vehicle and Carbamazepine was administered perorally in doses of 1, 3, and 10 mg/kg (Compound 1) or 30 mg/kg (carbamazepine) and drug effects on pain thresholds were evaluated 2- and 4 hours after drug administration by assessment of mechanical- (von Frey) and thermal hypersensitivity (heat- and cold stimulation respectively).
# (§6) Decrease in ES-induced pain threshold was evaluated 22 hours following electrical stimulation of the depilated left cheek area (between the eye and ear ridge, this is a receptive field of trigeminal nerve) of each rat and was manifested as facial withdrawal following application of Von Frey filaments for mechanical allodynia and a heat lamp and acetone test for thermal hyperalgesia and allodynia respectively. Baseline pain behaviors were measured similarly to ES-induced facial pain measurements, except that rats were not subjected to ES stimulation.
# Immediately following assessment of mechanical pain threshold, thermal (hot- and cold induced) pain was determined. […]
# [3] = system: electrocutaneous stimulation-induced facial pain rodent model; assay: ES-induced facial pain model, mechanical allodynia (Von Frey filaments), acute treatment; conditions: 30 mg/kg po, acute, 2 and 4 hours post dosing; p<0.001, p<0.0001 vs vehicle
# From the text: as §1, §2, §4, §5, §3
# Similarly, to day 1- and 2, all rats were subjected to acclimatization to test equipment and decapicone followed by measurements of ES-induced facial mechanical- heat- and cold allodynia (“0” time point on figures). […] Compound 1, vehicle and Carbamazepine was administered perorally in doses of 1, 3, and 10 mg/kg (Compound 1) or 30 mg/kg (carbamazepine) and drug effects on pain thresholds were evaluated 2- and 4 hours after drug administration by assessment of mechanical- (von Frey) and thermal hypersensitivity (heat- and cold stimulation respectively).
# as §6
# Mechanical pain thresholds were assessed by measuring each rat's facial withdrawal threshold (g) in response to von Frey monofilaments (BioSeb). […]
compound,measurement,setting,value
"NC(=O)N1c2ccccc2C=Cc2ccccc21 [Carbamazepine, reference compound]","effect on cold pain threshold (acetone test, facial withdrawal latency) vs vehicle",[1],significant enhancement of the cold pain threshold
same,effect on heat thermal hyperalgesia (facial withdrawal latency) vs vehicle,[2],full reversal of heat hyperalgesia
same,"effect on mechanical allodynia (mechanical pain threshold, Von Frey) vs vehicle",[3],significant analgesic effects

# Reference: patent publication US20240197733A1, “A GABA RECEPTOR MODULATOR FOR USE IN THE TREATMENT OF PAIN” (SANIONA A/S, priority 2021, published 2024)
